The values below come from ChEMBL document CHEMBL1201862, “PubChem BioAssay data set” (2004).

The source made the active and inactive calls.

Assay [1] addresses T1, Sentrin-specific protease 7 (Homo sapiens, UniProt Q9BQF6).
T1 sequence (Q9BQF6 whole entry): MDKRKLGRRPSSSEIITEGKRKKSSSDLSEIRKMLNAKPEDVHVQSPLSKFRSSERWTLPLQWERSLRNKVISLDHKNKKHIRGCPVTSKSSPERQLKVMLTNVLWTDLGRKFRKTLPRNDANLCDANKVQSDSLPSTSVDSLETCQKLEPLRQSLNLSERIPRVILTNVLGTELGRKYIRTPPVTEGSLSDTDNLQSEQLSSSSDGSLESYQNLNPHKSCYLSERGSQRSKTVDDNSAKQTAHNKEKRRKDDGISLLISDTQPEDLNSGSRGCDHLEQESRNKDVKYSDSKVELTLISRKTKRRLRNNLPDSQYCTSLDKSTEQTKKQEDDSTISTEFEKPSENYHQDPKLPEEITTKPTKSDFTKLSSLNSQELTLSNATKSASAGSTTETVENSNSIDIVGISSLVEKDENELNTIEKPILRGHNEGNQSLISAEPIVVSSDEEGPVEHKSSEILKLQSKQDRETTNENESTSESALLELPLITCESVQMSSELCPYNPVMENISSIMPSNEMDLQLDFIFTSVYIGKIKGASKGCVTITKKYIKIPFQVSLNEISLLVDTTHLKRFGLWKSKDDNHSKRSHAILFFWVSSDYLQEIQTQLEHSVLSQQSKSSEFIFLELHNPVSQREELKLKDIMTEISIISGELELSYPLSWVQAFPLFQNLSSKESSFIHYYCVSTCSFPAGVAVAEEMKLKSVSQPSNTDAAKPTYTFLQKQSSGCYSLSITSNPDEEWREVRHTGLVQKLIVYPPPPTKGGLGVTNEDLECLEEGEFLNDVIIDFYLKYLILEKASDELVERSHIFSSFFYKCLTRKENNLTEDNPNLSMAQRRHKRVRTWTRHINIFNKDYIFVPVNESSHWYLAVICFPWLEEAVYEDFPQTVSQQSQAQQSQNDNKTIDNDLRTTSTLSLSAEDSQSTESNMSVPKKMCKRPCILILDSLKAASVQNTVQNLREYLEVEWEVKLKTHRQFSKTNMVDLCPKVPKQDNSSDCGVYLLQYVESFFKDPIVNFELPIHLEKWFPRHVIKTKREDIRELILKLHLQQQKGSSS
It counts as functional.

Another assay addresses T2, Caspase-3 (Homo sapiens, UniProt P42574).
T2 sequence (P42574 whole entry): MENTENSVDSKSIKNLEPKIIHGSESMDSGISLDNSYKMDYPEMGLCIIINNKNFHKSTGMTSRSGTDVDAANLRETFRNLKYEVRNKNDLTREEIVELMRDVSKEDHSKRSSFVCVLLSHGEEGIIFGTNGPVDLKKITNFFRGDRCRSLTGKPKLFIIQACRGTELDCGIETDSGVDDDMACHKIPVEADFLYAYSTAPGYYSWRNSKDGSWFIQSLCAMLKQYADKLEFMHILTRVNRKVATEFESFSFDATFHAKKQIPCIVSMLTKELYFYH
In kind it is functional.

For assay [2], the target named is T3, Sentrin-specific protease 6 (Homo sapiens, UniProt Q9GZR1).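 Also: Luminescence-based dose-response confirmatory assay of SENP6 inhibition, following up an ultra-high-throughput screen.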
T3 sequence (Q9GZR1 whole entry): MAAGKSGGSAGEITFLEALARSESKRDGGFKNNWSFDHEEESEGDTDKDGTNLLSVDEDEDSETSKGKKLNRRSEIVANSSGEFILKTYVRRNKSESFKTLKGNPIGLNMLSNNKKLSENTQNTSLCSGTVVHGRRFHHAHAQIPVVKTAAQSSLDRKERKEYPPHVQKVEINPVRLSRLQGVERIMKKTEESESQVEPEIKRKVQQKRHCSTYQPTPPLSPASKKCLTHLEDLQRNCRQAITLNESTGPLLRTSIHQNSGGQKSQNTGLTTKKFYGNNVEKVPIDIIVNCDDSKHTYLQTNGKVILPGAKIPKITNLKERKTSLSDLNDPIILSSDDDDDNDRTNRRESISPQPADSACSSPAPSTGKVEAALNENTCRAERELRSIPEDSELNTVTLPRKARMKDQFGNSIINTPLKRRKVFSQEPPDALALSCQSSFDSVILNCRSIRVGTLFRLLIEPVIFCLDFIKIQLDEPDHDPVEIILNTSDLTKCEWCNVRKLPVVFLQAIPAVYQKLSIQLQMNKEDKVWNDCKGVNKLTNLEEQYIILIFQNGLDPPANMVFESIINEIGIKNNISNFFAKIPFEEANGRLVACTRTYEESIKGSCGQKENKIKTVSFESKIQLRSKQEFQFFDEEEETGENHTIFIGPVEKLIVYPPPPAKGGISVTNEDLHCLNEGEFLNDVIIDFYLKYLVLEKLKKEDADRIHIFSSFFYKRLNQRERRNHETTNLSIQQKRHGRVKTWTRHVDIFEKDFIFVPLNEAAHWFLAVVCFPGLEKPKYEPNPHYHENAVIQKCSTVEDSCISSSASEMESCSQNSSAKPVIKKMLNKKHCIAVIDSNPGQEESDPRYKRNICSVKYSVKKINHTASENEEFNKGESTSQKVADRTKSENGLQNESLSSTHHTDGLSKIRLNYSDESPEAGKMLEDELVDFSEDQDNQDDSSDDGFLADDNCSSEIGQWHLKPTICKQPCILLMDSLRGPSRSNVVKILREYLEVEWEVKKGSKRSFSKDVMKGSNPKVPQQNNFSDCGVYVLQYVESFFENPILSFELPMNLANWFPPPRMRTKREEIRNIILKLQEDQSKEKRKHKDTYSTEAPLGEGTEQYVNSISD
In kind it is functional.

The target of assay [3] is T4, Sentrin-specific protease 8 (Homo sapiens, UniProt Q96LD8).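 Also: luminescence read-out of SENP8 inhibition, dose-response confirmation following an ultra-high-throughput screen.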
T4 sequence (Q96LD8 whole entry): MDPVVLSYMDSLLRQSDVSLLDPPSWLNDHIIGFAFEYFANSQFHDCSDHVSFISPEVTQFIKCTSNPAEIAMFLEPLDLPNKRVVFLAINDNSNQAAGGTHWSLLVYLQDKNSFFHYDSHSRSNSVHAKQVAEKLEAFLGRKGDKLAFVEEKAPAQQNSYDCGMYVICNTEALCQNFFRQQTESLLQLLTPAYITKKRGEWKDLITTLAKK
In kind it is functional.

The next assay has as its target T5, Protein RecA (Mycobacterium tuberculosis, UniProt P9WHJ3).
T5 sequence (P9WHJ3 whole entry): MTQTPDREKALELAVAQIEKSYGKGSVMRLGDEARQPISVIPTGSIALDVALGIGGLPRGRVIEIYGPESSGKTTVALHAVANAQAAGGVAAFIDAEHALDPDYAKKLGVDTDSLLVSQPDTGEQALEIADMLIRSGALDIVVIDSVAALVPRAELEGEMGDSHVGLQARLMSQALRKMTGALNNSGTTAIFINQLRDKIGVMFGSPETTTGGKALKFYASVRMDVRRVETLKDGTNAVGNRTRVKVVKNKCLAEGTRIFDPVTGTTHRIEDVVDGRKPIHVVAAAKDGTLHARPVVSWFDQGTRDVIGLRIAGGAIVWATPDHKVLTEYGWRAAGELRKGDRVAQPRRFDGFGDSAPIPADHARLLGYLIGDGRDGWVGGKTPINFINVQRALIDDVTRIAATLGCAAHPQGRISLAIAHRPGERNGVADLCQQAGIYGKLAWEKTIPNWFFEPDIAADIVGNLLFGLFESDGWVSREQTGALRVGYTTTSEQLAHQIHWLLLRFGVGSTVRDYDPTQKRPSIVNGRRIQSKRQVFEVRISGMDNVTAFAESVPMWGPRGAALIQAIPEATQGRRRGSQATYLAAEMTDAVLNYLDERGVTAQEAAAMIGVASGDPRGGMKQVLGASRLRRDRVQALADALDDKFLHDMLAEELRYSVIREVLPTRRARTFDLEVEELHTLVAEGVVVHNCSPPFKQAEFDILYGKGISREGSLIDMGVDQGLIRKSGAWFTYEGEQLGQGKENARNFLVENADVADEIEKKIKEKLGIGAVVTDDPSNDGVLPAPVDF
The assay is described as follows: Fluorescence Cell-Free Homogeneous Dose Retest to Identify Inhibitors of RecA-Intein Splicing Activity. [Related pubchem assays (depositor defined):AID2097, AID2223, AID489010, AID492950]. In kind it is functional.

Assay [4] concerns the target T6, Replicative DNA helicase DnaB (Mycobacterium tuberculosis, UniProt P9WMR3).
T6 sequence (P9WMR3 whole entry): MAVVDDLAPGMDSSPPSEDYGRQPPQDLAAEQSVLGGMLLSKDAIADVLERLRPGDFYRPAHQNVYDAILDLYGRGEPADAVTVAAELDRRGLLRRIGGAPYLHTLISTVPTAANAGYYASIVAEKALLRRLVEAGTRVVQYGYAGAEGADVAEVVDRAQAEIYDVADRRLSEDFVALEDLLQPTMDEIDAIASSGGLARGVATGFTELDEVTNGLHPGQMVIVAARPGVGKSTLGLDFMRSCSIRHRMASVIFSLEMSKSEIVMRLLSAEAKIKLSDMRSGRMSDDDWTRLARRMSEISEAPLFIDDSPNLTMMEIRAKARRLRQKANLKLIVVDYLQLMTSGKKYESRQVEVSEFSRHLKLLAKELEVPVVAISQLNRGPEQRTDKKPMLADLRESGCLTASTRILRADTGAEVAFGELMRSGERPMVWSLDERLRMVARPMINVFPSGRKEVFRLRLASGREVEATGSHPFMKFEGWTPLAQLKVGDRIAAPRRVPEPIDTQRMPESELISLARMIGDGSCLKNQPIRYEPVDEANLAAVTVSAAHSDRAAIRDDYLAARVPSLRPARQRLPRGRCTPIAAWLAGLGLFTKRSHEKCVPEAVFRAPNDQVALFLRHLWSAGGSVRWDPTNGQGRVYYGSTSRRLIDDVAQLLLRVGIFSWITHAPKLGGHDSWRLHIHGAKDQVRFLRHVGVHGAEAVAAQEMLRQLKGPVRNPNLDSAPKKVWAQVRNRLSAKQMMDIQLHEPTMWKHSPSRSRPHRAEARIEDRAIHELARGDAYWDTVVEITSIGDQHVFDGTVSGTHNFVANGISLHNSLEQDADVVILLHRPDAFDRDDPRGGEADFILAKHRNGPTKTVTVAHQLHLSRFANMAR
The assay is described as follows: DnaB intein splicing inhibitors, dose response, biochemical, cell-free fluorescence (AID 449749). In kind it is functional.

Assay [5] is described as follows: microbe, parasite or virus in culture. To be noted: Mycobacterium tuberculosis. It counts as functional.
The nature of assay [6]: growth suppression of beta-catenin-knockout colon cells, dose response, cell-based, HCT116, human colon tumor (AID 1045).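 Also: HCT116 colon tumor cells with beta catenin knocked out; cells exposed to compound for 60 hours.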 In kind it is functional.
Assay [7] is described as follows: Luminescence Cell-Based Dose Confirmation HTS to Identify Inhibitors of Platelet Dense Granule Release. [Related pubchem assays: 1663 (Primary HTS), 1678 (Summary of Project)]. It counts as functional.
The nature of assay [8]: Luminescence Cell-Based Dose Confirmation HTS to Identify Activators of 5'UTR Stem-Loop Driven Alpha-Synuclein mRNA Translation in H4 Neuroglioblastoma Cells. [Related pubchem assays: 1829 (Project Summary), 1814 (Primary HTS)]. It counts as functional.
Assay [9] can be described thus: Luminescence Cell-Based Dose Response HTS to Identify Activators of Luciferase Translation or Activity in H4 […] Cells. [Related pubchem assays: 1829 (Project Summary), 1814 (Primary HTS)]. It counts as functional.
Assay [10] concerns the target Luciferin 4-monooxygenase (Photinus pyralis, UniProt P08659). The assay is described as follows: firefly luciferase enzyme inhibitors, dose response, biochemical, luminescence (AID 1891).
In a further assay the test system is H4. The assay is described as follows: Luminescence Cell-Based Dose Response HTS to Identify Activators of 5'UTR Stem-Loop Driven Prion Protein mRNA Translation in H4 Neuroglioblastoma Cells. [Related pubchem assays: 1829 (Project Summary), 1814 (Primary HTS)]. In kind it is functional. To be noted: Homo sapiens.
Assay [11] can be described thus: growth suppression of PTEN-null colon cells, dose response, cell-based, HCT116 PTEN knockout (AID 1047).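 Also: HCT116 colon tumor cells with PTEN knocked out; cells exposed to compound for 60 hours before readout; potency for loss of cell viability measured by luminescence.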 It counts as functional.
Assay [12] can be described thus: NIH-3T3 fibroblast cytotoxicity, dose response, cytotoxicity control, cell-based, fluorescence, Alamar Blue, secondary assay (AID 2327).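 Also: NIH-3T3 mouse fibroblasts cultured with fluconazole at 8 µg/mL.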 It counts as functional. In general terms: Resazurin is reduced to fluorescent resorufin, in cell work by metabolically active cells.

Luciferin 4-monooxygenase, sequence (P08659 whole entry): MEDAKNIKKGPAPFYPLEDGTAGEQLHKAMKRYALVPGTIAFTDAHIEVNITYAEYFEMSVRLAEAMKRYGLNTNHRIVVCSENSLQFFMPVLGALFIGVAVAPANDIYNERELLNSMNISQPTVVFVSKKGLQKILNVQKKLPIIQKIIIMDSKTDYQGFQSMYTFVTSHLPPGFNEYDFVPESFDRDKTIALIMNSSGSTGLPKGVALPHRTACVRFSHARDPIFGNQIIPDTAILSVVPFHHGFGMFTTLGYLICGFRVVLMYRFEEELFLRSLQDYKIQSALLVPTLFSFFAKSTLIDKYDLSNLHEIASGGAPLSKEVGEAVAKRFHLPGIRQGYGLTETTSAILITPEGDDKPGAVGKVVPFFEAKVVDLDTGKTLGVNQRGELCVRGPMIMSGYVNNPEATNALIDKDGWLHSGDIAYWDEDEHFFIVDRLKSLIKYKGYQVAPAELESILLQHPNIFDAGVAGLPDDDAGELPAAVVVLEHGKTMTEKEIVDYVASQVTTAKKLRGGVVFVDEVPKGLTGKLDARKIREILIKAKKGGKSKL

Turning to `O=C(Nc1ccccc1)Nc1ccccc1C(=O)NCc1ccccc1`, the IC50 (as a rule, the midpoint of a concentration-inhibition curve) in [1] was 6.13 µM (active); on Caspase-3, 39.4 µM (active); in [2], > 100 µM (inactive); in [3], > 100 µM (inactive).

On to `Brc1c(-c2ccccc2)nc2n1Cc1ccccc1-2`, for which the IC50 is 5.23 µM (active) in assay [1], 15 µM (active) at Caspase-3, 6.75 µM (active) in assay [2] and 7.57 µM (active) in assay [3].

Consider `CC(C)(C)c1csc(NC(=O)c2c(F)c(F)c(F)c(F)c2F)n1`, for which the EC50 (as a rule, the concentration giving half of the maximal effect) on Protein RecA was 18.4 µM (active). Further, in [4], the concentration at half-maximal activity (AC50) (as a rule, the concentration at which the activity in the assay is half-maximal) is 26 µM (active). Besides, in assay [5], the CC50 is 34 µM (active).

Regarding `Cc1ccc2[nH]c(/C(C#N)=C/c3c[nH]nc3-c3ccc(F)cc3)nc2c1`, the 50% effective concentration (EC50) in assay [6] is 9.64 µM (active); in assay [7] it was 46.2 µM (active); in assay [8] it was > 120 µM (not active); in assay [9] it was 5.96 µM (active); in [10] it was > 112 µM (not active); in the assay with H4, > 120 µM (not active). Besides, the concentration for a half-maximal effect (EC50) in [11] is 7.74 µM (active). Further, the CC50 in assay [5] is 26.9 µM (active).

For `O=C(OCc1ccccc1Cl)c1cccnc1Cl`, the IC50 is 11.8 µM (active) in assay [1], 23.5 µM (active) on Caspase-3, 36.6 µM (active) in assay [2] and 27.3 µM (active) in assay [3].

Regarding `CCS(=O)(=O)c1ccc(-c2cccc(NC(=O)COc3ccc(Cl)cc3)c2)nn1`, in [12], the EC50 is > 150 µM (inactive).

With `CCOC(=O)/C(C#N)=C/c1ccc(N2CCCCC2)cc1`, the half-inhibitory concentration (IC50) was 7.1 µM (active) in assay [1], 23.4 µM (active) at Caspase-3, 41.4 µM (active) in [2] and 31.6 µM (active) in [3].

In the case of `Clc1cccc(-c2ccc(-c3nc4ccccn4c3NCc3ccccc3)cc2)c1`, the IC50 is 7.22 µM (active) in [1], 12.9 µM (active) at Caspase-3, 9.6 µM (active) in assay [2] and 18 µM (active) in assay [3].
